Each structure is given as a SMILES string.

The first assay has as its system cholesterol-fed hamsters. In words: Effect on serum lipids of cholesterol-fed hamsters (serum total cholesterol and triglyceride reduction rate). Type of assay: in vivo. To be noted: cholesterol-fed Syrian hamsters, oral once a day for 5 days, dose 6.25 mg/kg. The protocol: Pharmacological Test Example 1: Effect on serum lipids of cholesterol-fed hamsters
Syrian hamsters (Std:Syrian, Male, 4 weeks old) were freely fed with chow containing 1% cholesterol and 10% coconut oil for 3 weeks ad libitum.
At the last week of feeding, each of the test compounds was dissolved or suspended in either 0.1% hydrochloric acid solution or 1% polyethylene-hydrogenated castor oil (NIKKOL HCO-60) solution and was orally administrated to hamsters once a day for 5 days. For the hamsters of the control group, only the solvent was orally administered. Then, blood was collected from the abdominal vein under the condition of anesthesia with pentobarbital at 2-4 hours after the last administration, and the serum in the blood was separated. The serum total cholesterol value and the serum triglyceride value were determined by using autobiochemical analyzer with analizing kits, and reduction rate of the serum lipids was determined according to the equation indicated below based on the analyzed values for respective hamster groups.
Serum lipids reduction rate (%)=(Amount of serum lipids of the control group−Amount of serum lipids of the group administrated with the test compound)/Amount of serum lipids of the control group×100
`O=C(Nc1ccc(-n2ccnc2)cc1)c1cccnc1` [4-26]: the “Serum lipids reduction rate comparing to Control group (%), Means of 3 animals: Total cholesterol” value amounted to 22% and the “Serum lipids reduction rate comparing to Control group (%), Means of 3 animals: Triglyceride” value is reported as 48%.

The assay is the same for the next values; noted with them: cholesterol-fed Syrian hamsters, oral once a day for 5 days, dose 12.5 mg/kg.
As to `O=C(Nc1ccc(-n2ccnc2)cc1)C1CCCO1` (racemic) [4-17], the “Serum lipids reduction rate comparing to Control group (%), Means of 3 animals: Total cholesterol” value amounted to 35% and the “Serum lipids reduction rate comparing to Control group (%), Means of 3 animals: Triglyceride” value was 53%.

Turning to `O=C(Nc1ccc(-n2ccnc2)cc1)c1cc2ccccc2[nH]1` [4-2], the “Serum lipids reduction rate comparing to Control group (%), Means of 3 animals: Total cholesterol” value came to 32% and the “Serum lipids reduction rate comparing to Control group (%), Means of 3 animals: Triglyceride” value came out at 45%.

`Cn1c(C(=O)Nc2ccc(-n3ccnc3)cc2)cc2ccccc21` [4-4]: the “Serum lipids reduction rate comparing to Control group (%), Means of 3 animals: Total cholesterol” value amounted to 23% and the “Serum lipids reduction rate comparing to Control group (%), Means of 3 animals: Triglyceride” value is 32%.

Regarding `COc1ccc2c(c1)cc(C(=O)Nc1ccc(-n3ccnc3)cc1)n2C` [4-6], the “Serum lipids reduction rate comparing to Control group (%), Means of 3 animals: Total cholesterol” value is 41% and the “Serum lipids reduction rate comparing to Control group (%), Means of 3 animals: Triglyceride” value turned out to be 71%.

As for `Cc1cc(C(=O)Nc2ccc(-n3ccnc3)cc2)[nH]n1` [4-15], the “Serum lipids reduction rate comparing to Control group (%), Means of 3 animals: Total cholesterol” value came out at 37% and the “Serum lipids reduction rate comparing to Control group (%), Means of 3 animals: Triglyceride” value is listed as 73%.

On to `O=C(Nc1ccc(-n2ccnc2)cc1)c1ccccn1` [4-24], for which the “Serum lipids reduction rate comparing to Control group (%), Means of 3 animals: Total cholesterol” value is 30% and the “Serum lipids reduction rate comparing to Control group (%), Means of 3 animals: Triglyceride” value turned out to be 25%.

Regarding `O=C(Nc1ccc(-n2ccnc2)cc1)c1ccc(Cl)nc1` [4-25], the “Serum lipids reduction rate comparing to Control group (%), Means of 3 animals: Total cholesterol” value worked out at 25% and the “Serum lipids reduction rate comparing to Control group (%), Means of 3 animals: Triglyceride” value is listed as 52%.

Still in this assay, the particulars now being: cholesterol-fed Syrian hamsters, oral once a day for 5 days, dose 25 mg/kg.
Turning to `O=C(Nc1ccc(-n2ccnc2)cc1)C1CCc2ccccc2O1` (racemic) [4-11], the “Serum lipids reduction rate comparing to Control group (%), Means of 3 animals: Total cholesterol” value was found to be 43% and the “Serum lipids reduction rate comparing to Control group (%), Means of 3 animals: Triglyceride” value was found to be 47%.

With `CC1(C(=O)Nc2ccc(-n3ccnc3)cc2)Cc2ccccc2O1` (racemic) [4-12], the “Serum lipids reduction rate comparing to Control group (%), Means of 3 animals: Total cholesterol” value is recorded as 27% and the “Serum lipids reduction rate comparing to Control group (%), Means of 3 animals: Triglyceride” value turned out to be 41%.

Regarding `Cn1ccc(C(=O)Nc2ccc(-n3ccnc3)cc2)c1` [4-3], the “Serum lipids reduction rate comparing to Control group (%), Means of 3 animals: Total cholesterol” value was 75% and the “Serum lipids reduction rate comparing to Control group (%), Means of 3 animals: Triglyceride” value stood at 91%.

On to `Cc1ccc2[nH]c(C(=O)Nc3ccc(-n4ccnc4)cc3)cc2c1` [4-7], for which the “Serum lipids reduction rate comparing to Control group (%), Means of 3 animals: Total cholesterol” value was 27% and the “Serum lipids reduction rate comparing to Control group (%), Means of 3 animals: Triglyceride” value was determined as 31%.

Take `O=C(Nc1ccc(-n2ccnc2)cc1)c1cc2cc(F)ccc2[nH]1` [4-9]: the “Serum lipids reduction rate comparing to Control group (%), Means of 3 animals: Total cholesterol” value is 44% and the “Serum lipids reduction rate comparing to Control group (%), Means of 3 animals: Triglyceride” value worked out at 61%.

As to `Cc1cc(C(=O)Nc2ccc(-n3ccnc3)cc2)n(C)n1` [4-14], the “Serum lipids reduction rate comparing to Control group (%), Means of 3 animals: Total cholesterol” value is on record as 66% and the “Serum lipids reduction rate comparing to Control group (%), Means of 3 animals: Triglyceride” value stood at 42%.

In the case of `CC(C)(C)c1cc(C(=O)Nc2ccc(-n3ccnc3)cc2)[nH]n1` [4-16], the “Serum lipids reduction rate comparing to Control group (%), Means of 3 animals: Total cholesterol” value is reported as 34% and the “Serum lipids reduction rate comparing to Control group (%), Means of 3 animals: Triglyceride” value is reported as 34%.

For `CC12CCC(C(=O)Nc3ccc(-n4ccnc4)cc3)(OC1=O)C2(C)C` (stereo not drawn) [4-19], the “Serum lipids reduction rate comparing to Control group (%), Means of 3 animals: Total cholesterol” value was 19% and the “Serum lipids reduction rate comparing to Control group (%), Means of 3 animals: Triglyceride” value is recorded as 50%.

Turning to `O=C(Nc1ccc(-n2ccnc2)cc1)c1ccc2c(c1)OCO2` [4-21], the “Serum lipids reduction rate comparing to Control group (%), Means of 3 animals: Total cholesterol” value came out at 51% and the “Serum lipids reduction rate comparing to Control group (%), Means of 3 animals: Triglyceride” value was 57%.

`O=C(Nc1ccc(-n2ccnc2)cc1)c1nccc2ccccc12` [4-22]: the “Serum lipids reduction rate comparing to Control group (%), Means of 3 animals: Total cholesterol” value is listed as 48% and the “Serum lipids reduction rate comparing to Control group (%), Means of 3 animals: Triglyceride” value is 61%.

(Values after patent US6342516B1, “Phenylazole compounds, process for producing the same and drugs for hyperlipemia” (Nippon Soda Co., Ltd., priority 1998, dated 2002).)
